Experimental data as given in paper PMC9502272, “A Metabolomics Approach for Predicting OATP1B-Type Transporter-Mediated Drug–Drug Interaction Liabilities” (Pharmaceutics, 2022).
Several values for one entry are separate records, joined by “and”; a condition that tells them apart may be missing. Equal entries are not always repeated.

Experiments:
human OATP1B1 = test: Baseline plasma CDCA-24G in Oatp1a/1b(−/−) mice with transgenic hepatic expression of OATP1B1 (OATP1B1(tg)); assay type: in vivo, mouse; details: range stated jointly for OATP1B1(tg) and OATP1B3(tg)
Experimental: (§1) Plasma concentrations of levels of CDCA-24G and glycochenodeoxycholate-3-sulfate (GCDCA-S) were determined using LC-MS/MS using a Vanquish UHPLC coupled with a Quantiva triple quadrupole mass spectrometer (Thermo Fisher Scientific, Waltham, MA, USA). An Accucore aQ column (50 × 2.1 mm, dp = 2.6 μm; Thermo Fisher Scientific) was protected by a C18 AQUASIL guard cartridge (2.1 mm × 10 mm, dp = 3 μm; Thermo Fisher Scientific). The injection volume of sample was 5.0 μL. The temperature of the autosampler rack was 4 °C, and the temperature of the column was maintained at 20 °C. The mobile phase was composed of solvent A (2 mmol ammonium acetate in water) and solvent B (100% methanol), and the total run time was 4.6 min. The gradient conditions were as follows: 0–0.5 min, 45% B; 0.5–2.0 min, 45 to 90%, 2.0–4.0 min, 90% B; 4.0–4.6 min, 45% B, delivered at a flow rate of 0.4 mL/min. […] Precursor molecular ions, and product ions were recorded for the confirmation and detection of GCDCA-S (528.4 > 448.3) and CDCA-24G (567.4 > 391.1), using [^2H5]-GCDCA-S (535.5 > 453.3) and [^2H5]-CDCA-24G (572.5 > 396.1) as respective internal standards. The lower limit of quantitation (LLOQ) for both analytes was determined to be 0.5 ng/mL. […]

human OATP1B3 = test: Baseline plasma CDCA-24G in Oatp1a/1b(−/−) mice with transgenic hepatic expression of OATP1B3 (OATP1B3(tg)); assay type: in vivo; details: range stated jointly for OATP1B1(tg) and OATP1B3(tg)
Experimental: as §1

OATP1B1 = molecular target: T1, OATP1B1 (Homo sapiens, UniProt Q9Y6L6); test: Uptake in HEK293 cells overexpressing OATP1B1; assay type: cell-based; details: HEK293 cells overexpressing OATP1B1, 5 min uptake, vs empty vector
T1 construct: expressed in transfected cells; host or cells: HEK293 (ATCC)
T1 sequence (Q9Y6L6 1-691): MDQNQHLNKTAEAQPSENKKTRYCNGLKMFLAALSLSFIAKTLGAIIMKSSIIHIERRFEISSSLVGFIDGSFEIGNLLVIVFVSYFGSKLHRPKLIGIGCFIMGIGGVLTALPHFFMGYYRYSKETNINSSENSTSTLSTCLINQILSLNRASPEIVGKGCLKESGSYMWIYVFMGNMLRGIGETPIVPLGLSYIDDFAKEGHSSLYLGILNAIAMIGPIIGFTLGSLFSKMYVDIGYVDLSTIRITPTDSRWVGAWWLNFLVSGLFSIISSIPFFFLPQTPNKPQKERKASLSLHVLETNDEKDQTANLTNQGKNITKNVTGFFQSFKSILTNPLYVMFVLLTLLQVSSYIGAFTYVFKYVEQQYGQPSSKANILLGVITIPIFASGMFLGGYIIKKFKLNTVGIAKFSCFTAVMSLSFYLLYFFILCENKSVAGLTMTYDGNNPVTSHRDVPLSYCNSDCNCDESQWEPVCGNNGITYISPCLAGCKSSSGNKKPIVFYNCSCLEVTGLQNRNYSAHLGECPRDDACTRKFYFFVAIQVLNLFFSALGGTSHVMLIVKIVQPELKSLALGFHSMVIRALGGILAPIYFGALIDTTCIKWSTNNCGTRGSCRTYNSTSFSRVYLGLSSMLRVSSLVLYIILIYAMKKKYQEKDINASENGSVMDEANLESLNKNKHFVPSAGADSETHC
Experimental: The generation of human embryonic kidney (HEK293) cells (ATCC) engineered to overexpress OATP1B1, Oatp1b2, or empty vector, the cell culture conditions, and general details of uptake studies have been reported in detail elsewhere. Briefly, cells were grown to 90% confluence on poly-lysine coated multi-well plates. […] The pre-treatment medium was rinsed off with warm 1× PBS followed by the addition of the test compounds for an incubation period of 5 min. After incubation, transport was halted by aspirating the medium and rinsing the cells three times with ice-cold 1× PBS. After lysing cells with 0.1 N HCl, and subsequent adding methanol, 20 μL aliquots were mixed with 60 μL of acetonitrile containing relevant internal standards. After vortex mixing, the mixtures were centrifuged, and the supernatants were used for quantitative analysis by LC-MS/MS. Drug uptake results were normalized to total protein content and then to data obtained in cells carrying an empty vector plasmid, which was set to 100%.

Oatp1b2 = molecular target: T2, Oatp1b2 (Mus musculus, UniProt Q9JJL3); test: Baseline plasma CDCA-24G in Oatp1b2(−/−) vs wild-type mice, validated quantitative LC-MS/MS; assay type: in vivo; set-up: from tissue; host or cells: living wild-type mice (DBA/1LacJ or FVB background); hepatic transporter in vivo; details: untreated, n = 6 per group
T2 sequence (Q9JJL3 1-689): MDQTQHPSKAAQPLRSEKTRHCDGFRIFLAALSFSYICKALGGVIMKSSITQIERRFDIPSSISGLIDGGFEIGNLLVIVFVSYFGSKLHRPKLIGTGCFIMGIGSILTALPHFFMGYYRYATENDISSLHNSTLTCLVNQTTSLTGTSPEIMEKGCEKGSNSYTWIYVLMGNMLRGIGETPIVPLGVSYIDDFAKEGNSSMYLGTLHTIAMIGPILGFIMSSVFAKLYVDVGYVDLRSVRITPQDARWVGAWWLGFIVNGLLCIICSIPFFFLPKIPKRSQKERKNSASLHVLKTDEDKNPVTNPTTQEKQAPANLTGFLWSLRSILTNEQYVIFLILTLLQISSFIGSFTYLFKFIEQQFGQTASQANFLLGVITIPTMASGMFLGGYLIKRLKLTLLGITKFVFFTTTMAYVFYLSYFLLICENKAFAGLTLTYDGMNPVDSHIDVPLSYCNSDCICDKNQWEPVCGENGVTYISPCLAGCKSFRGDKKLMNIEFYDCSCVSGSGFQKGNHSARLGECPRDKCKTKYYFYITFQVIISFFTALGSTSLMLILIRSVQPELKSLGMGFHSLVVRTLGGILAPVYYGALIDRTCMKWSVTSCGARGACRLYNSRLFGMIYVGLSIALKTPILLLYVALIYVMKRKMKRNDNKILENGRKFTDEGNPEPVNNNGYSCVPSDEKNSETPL
Experimental: as §1

C[C@H](CCC(=O)O[C@@H]1O[C@H](C(=O)O)[C@@H](O)[C@H](O)[C@H]1O)[C@H]1CC[C@H]2[C@@H]3[C@H](O)C[C@@H]4C[C@H](O)CC[C@]4(C)[C@H]3CC[C@]12C [CDCA-24G, chenodeoxycholate-24-glucuronide]
Baseline CDCA-24G level, fold lower than in Oatp1a/1b(−/−) mice (human OATP1B1): 5- to 7 fold | Baseline CDCA-24G level, fold lower than in Oatp1a/1b(−/−) mice (human OATP1B3): 5- to 7 fold | Transport by human OATP1B-type transporter (OATP1B1): efficiently transported | Plasma concentration of CDCA-24G in Oatp1b2(−/−) mice relative to wild type (Oatp1b2): 31 fold and > 30 fold
